Tested on: p21^cip1 abundance in HCMV-infected LU cells
Assay: Western blot of p21cip1 abundance in HCMV-infected, density-arrested LU cells
Format: cell-based, human
Method: Cell culture and growth arrest. LU cells (3) were propagated in Eagle's minimum essential medium containing 10% fetal bovine serum and penicillin (100 units/ml)/streptomycin (100 μg/ml) in a 5% CO2 in air atmosphere. The cells were density-arrested as described previously in detail (18).
Virus stocks and productive infection. The AD169 strain of HCMV was propagated in LU cells as previously described in detail (6). The infectivity of virus stocks was determined by plaque assay (3). Virus stocks typically had infectivities between 8.0×10^6 and 4.0×10^7 plaque-forming units (PFU)/milliliter. LU cells were infected with HCMV as described in detail by Bresnahan et al. (18). Virus stocks and cell cultures were routinely examined for mycoplasma.
Western blots. Polyclonal or monoclonal antibody for p21^cip1 was obtained from Santa Cruz Biotechnology, Inc. (Santa Cruz, Calif.). Monoclonal antibodies against m-calpain, μ-calpain or calpastatin were generously provided by Dr. R. I. Mellgren (see also 75). Cells were harvested as described previously (18) by dislodging the cells with a cell lifter in phosphate buffered saline. The cells were collected by sedimentation and lysed in NP-40 lysis buffer [50 mM Tris, pH 7.4, 50 mM NaCl, 0.5% NP-40, and 1 mM NaVO3, 50 mM NaF, 1mM phenylmethylsulfonyl fluoride (PMSF), 1 mM dithiothreitol (DTT), 25 μg/ml trypsin inhibitor, 25 μg/ml aprotinin, 1 mM benzamide, and 25 μg/ml pepstatin A added just before use]. Cellular debris was removed by sedimentation and the supernatant fluids were reserved. The protein concentration was determined by the BCA protein assay (Pierce, Rockford, Ill.). Whole cell extracts (40 μg/lane) were fractionated by SDS-polyacrylamide gel electrophoresis (PAGE), and the polypeptides were transferred to nitrocellulose membranes (Bio-Rad Laboratories, Hercules, Calif.) as described previously (18). Antigen-antibody reactions were detected with the enhanced chemiluminescent assay (Amersham Pharmacia Biotech) following the manufacturer's recommendations. […]
FIGS. 9 and 10. The concentration effect of E64d on p21^cip1 abundance in HCMV-infected cells. 9: LU cells were density arrested as described in Materials and Methods. The cells were HCMV (5 PFU/cell) or mock infected, and at 48 hr PI were treated with selected concentrations of E64d. Whole cell lysates were prepared 6 hr later, and 40 μg of protein from each lysate was resolved by SDS-PAGE. The proteins were transferred to nitrocellulose and probed with antibodies to p21^cip1. Mock: mock-infected cells in the absence of drug. Control, untreated HCMV-infected cells. 0, DMSO solvent control, consisting of HCMV-infected cells treated with the same concentration of DMSO solvent (0.1%) contained in the highest concentration of E64d. 10: Represents the abundance of p21^cip1 determined by densitometric analysis of the data in FIG. 9.
FIGS. 11 and 12. The concentration effect of Z-Leu-Leu-H on p21^cip1 abundance in HCMV-infected cells. 11. LU cells were density arrested as described in Materials and Methods. The cells were HCMV (5 PFU/cell) infected, and at 48 hr PI were treated with selected concentrations of Z-Leu-Leu-H. Whole cell lysates were prepared 6 hr later, and 40 μg of protein from each lysate was resolved by SDS-PAGE. The proteins were transferred to nitrocellulose and probed with antibodies to p21^cip1. Mock, Control, and 0 are defined as in the legend to FIG. 9. 12 : Represents the abundance of p21^cip1 determined by densitometric analysis of the data in FIG. 11.
FIGS. 13 and 14. The time course for the effect of E64d on p21^cip1 abundance in HCMV-infected, density-arrested cells. 13: LU cells were density arrested, as described in Materials and Methods. The cells were HCMV (5 PFU/cell) or mock infected, and at the intervals indicated in the Fig., beginning 1 hr after infection, subsets of the cells were treated with E64d (100 μM). […]

CC(C)C[C@H](NC(=O)[C@H]1O[C@@H]1C(=O)O)C(=O)NCCCCN=C(N)N (relative stereo) [E64d, trans-epoxysuccinyl-L-leucylamido (4-guanidino)-butane]
p21^cip1 abundance as % of that measured in mock-infected cells (100 μM, HCMV-infected cells treated at 48 hr PI, lysates 6 hr later): about 85%
increase in the abundance of p21^cip1 (E64d 100 μM from 48 hr PI, HCMV-infected cells, after 12 hr of treatment): 4 fold
maximum level of p21^cip1 relative to that observed at 0 hr (E64d 100 μM from 48 hr PI, HCMV-infected cells, up to 24 hr treatment): about 84%
p21^cip1 levels versus absence of inhibitor over time course of infection (in words) (E64d 100 μM up to 12 hr before harvest, HCMV-infected cells, 3 hr to 96 hr PI): consistently greater
protection of p21^cip1, concentration effect (in words) (HCMV-infected cells treated at 48 hr PI for 6 hr, selected concentrations up to 100 μM): directly dependent on the concentration

From patent US7271148B2, “Inhibition of cellular proteases” (The Board of Regents of The University of Texas System, priority 1999, dated 2007)
